Experimental data taken from ChEMBL document CHEMBL1140819, “Protected aminooxyprolines for expedited library synthesis: application to Tsg101-directed proline-oxime containing peptides” (Bioorg Med Chem Lett, 2008).
*1 amine or outer side, *2 acyl side, *3 side chain or, on linkers, in order; H or OH if unused. Where a SMILES comes first, the peptide text is derived from it. [ ]: non-standard residue; d: D form. The star is where a group is joined. ξ: configuration not given here. Fluorescein(5-NHCS) = O=C1OC2(c3ccc(O)cc3Oc3cc(O)ccc32)c2cc(NC(=S)*)ccc21; X17 = COc1ccc(/C=N\O[C@@H]2C[C@@H](C(=O)[*:2])N([*:1])C2)cc1O; X27 = N#Cc1ccc(/C=N\O[C@@H]2C[C@@H](C(=O)[*:2])N([*:1])C2)cc1; X43 = COc1ccc(/C=N\O[C@H]2CCN([*:1])[C@@H]2C(=O)[*:2])cc1OC; X37 = O=C([C@@H]1C[C@@H](O/N=C\c2ccc(CO)o2)CN1[*:1])[*:2]; X26 = O=C([C@@H]1C[C@@H](O/N=C\CCc2ccccc2)CN1[*:1])[*:2]; X42 = O=C([C@@H]1[C@@H](O/N=C\CCc2ccccc2)CCN1[*:1])[*:2]; X4 = O=C([C@@H]1[C@@H](O/N=C\c2ccncc2)CCN1[*:1])[*:2]; X44 = O=C([C@@H]1[C@@H](O/N=C\c2ccoc2)CCN1[*:1])[*:2]; X35 = O=C([C@@H]1C[C@H](O/N=C\c2ccoc2)CN1[*:1])[*:2]; X2 = CCCCC/C=N\O[C@H]1C[C@@H](C(=O)[*:2])N([*:1])C1; ξPip = O=C(O)C1CCCCN1; Ava = NCCCCC(=O)O

Target: T1, Tumor susceptibility gene 101 protein (Homo sapiens, UniProt Q99816)
T1 sequence (Q99816 whole entry): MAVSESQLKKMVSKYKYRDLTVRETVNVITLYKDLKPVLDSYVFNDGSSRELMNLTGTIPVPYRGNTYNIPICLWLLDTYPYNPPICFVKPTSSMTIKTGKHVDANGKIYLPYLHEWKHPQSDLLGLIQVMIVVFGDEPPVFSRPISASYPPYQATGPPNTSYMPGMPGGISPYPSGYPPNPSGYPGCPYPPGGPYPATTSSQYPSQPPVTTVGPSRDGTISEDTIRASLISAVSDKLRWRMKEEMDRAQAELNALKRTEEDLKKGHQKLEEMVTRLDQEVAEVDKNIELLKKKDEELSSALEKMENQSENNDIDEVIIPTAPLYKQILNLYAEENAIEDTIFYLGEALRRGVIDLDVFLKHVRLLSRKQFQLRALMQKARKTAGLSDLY
Experiment: Binding affinity to Tsg101

Structure (SMILES) | IC50 [µM]
C[C@H](NC(=O)[C@@H](NC(=O)[C@@H]1CCCN1C(=O)[C@H](CCC(=O)O)NC(=O)[C@@H]1CCCN1C(=O)CCCCNC(=S)Nc1ccc2c(c1)C1(OC2=O)c2ccc(O)cc2Oc2cc(O)ccc21)[C@@H](C)O)C(=O)N1CCCCC1C(=O)N1CC[C@H](O/N=C\CCc2ccccc2)[C@H]1C(=O)N[C@@H](CCC(=O)O)C(=O)N[C@@H](CCC(=O)O)C(N)=O (stereo not given in full) ({Fluorescein(5-NHCS)-Ava}-PEPTA[ξPip][X42]EE-NH2) | 20
CCCCC/C=N\O[C@H]1C[C@@H](C(=O)N[C@@H](CCC(=O)O)C(=O)N[C@@H](CCC(=O)O)C(N)=O)N(C(=O)C2CCCCN2C(=O)[C@H](C)NC(=O)[C@@H](NC(=O)[C@@H]2CCCN2C(=O)[C@H](CCC(=O)O)NC(=O)[C@@H]2CCCN2C(=O)CCCCNC(=S)Nc2ccc3c(c2)C2(OC3=O)c3ccc(O)cc3Oc3cc(O)ccc32)[C@@H](C)O)C1 (stereo not given in full) ({Fluorescein(5-NHCS)-Ava}-PEPTA[ξPip][X2]EE-NH2) | 42
C[C@H](NC(=O)[C@@H](NC(=O)[C@@H]1CCCN1C(=O)[C@H](CCC(=O)O)NC(=O)[C@@H]1CCCN1C(=O)CCCCNC(=S)Nc1ccc2c(c1)C1(OC2=O)c2ccc(O)cc2Oc2cc(O)ccc21)[C@@H](C)O)C(=O)N1CCCCC1C(=O)N1CC[C@H](O/N=C\c2ccoc2)[C@H]1C(=O)N[C@@H](CCC(=O)O)C(=O)N[C@@H](CCC(=O)O)C(N)=O (stereo not given in full) ({Fluorescein(5-NHCS)-Ava}-PEPTA[ξPip][X44]EE-NH2) | 20
C[C@H](NC(=O)[C@@H](NC(=O)[C@@H]1CCCN1C(=O)[C@H](CCC(=O)O)NC(=O)[C@@H]1CCCN1C(=O)CCCCNC(=S)Nc1ccc2c(c1)C1(OC2=O)c2ccc(O)cc2Oc2cc(O)ccc21)[C@@H](C)O)C(=O)N1CCCCC1C(=O)N1CC[C@H](O/N=C\c2ccncc2)[C@H]1C(=O)N[C@@H](CCC(=O)O)C(=O)N[C@@H](CCC(=O)O)C(N)=O (stereo not given in full) ({Fluorescein(5-NHCS)-Ava}-PEPTA[ξPip][X4]EE-NH2) | 22
COc1ccc(/C=N\O[C@H]2CCN(C(=O)C3CCCCN3C(=O)[C@H](C)NC(=O)[C@@H](NC(=O)[C@@H]3CCCN3C(=O)[C@H](CCC(=O)O)NC(=O)[C@@H]3CCCN3C(=O)CCCCNC(=S)Nc3ccc4c(c3)C3(OC4=O)c4ccc(O)cc4Oc4cc(O)ccc43)[C@@H](C)O)[C@@H]2C(=O)N[C@@H](CCC(=O)O)C(=O)N[C@@H](CCC(=O)O)C(N)=O)cc1OC (stereo not given in full) ({Fluorescein(5-NHCS)-Ava}-PEPTA[ξPip][X43]EE-NH2) | 22

More lines, now with the values ahead:

IC50 [µM] | Structure (SMILES)
23 | COc1ccc(/C=N\O[C@@H]2C[C@@H](C(=O)N[C@@H](CCC(=O)O)C(=O)N[C@@H](CCC(=O)O)C(N)=O)N(C(=O)C3CCCCN3C(=O)[C@H](C)NC(=O)[C@@H](NC(=O)[C@@H]3CCCN3C(=O)[C@H](CCC(=O)O)NC(=O)[C@@H]3CCCN3C(=O)CCCCNC(=S)Nc3ccc4c(c3)C3(OC4=O)c4ccc(O)cc4Oc4cc(O)ccc43)[C@@H](C)O)C2)cc1O (stereo not given in full) ({Fluorescein(5-NHCS)-Ava}-PEPTA[ξPip][X17]EE-NH2)
26 | C[C@H](NC(=O)[C@@H](NC(=O)[C@@H]1CCCN1C(=O)[C@H](CCC(=O)O)NC(=O)[C@@H]1CCCN1C(=O)CCCCNC(=S)Nc1ccc2c(c1)C1(OC2=O)c2ccc(O)cc2Oc2cc(O)ccc21)[C@@H](C)O)C(=O)N1CCCCC1C(=O)N1C[C@H](O/N=C\c2ccc(CO)o2)C[C@H]1C(=O)N[C@@H](CCC(=O)O)C(=O)N[C@@H](CCC(=O)O)C(N)=O (stereo not given in full) ({Fluorescein(5-NHCS)-Ava}-PEPTA[ξPip][X37]EE-NH2)
26 | C[C@H](NC(=O)[C@@H](NC(=O)[C@@H]1CCCN1C(=O)[C@H](CCC(=O)O)NC(=O)[C@@H]1CCCN1C(=O)CCCCNC(=S)Nc1ccc2c(c1)C1(OC2=O)c2ccc(O)cc2Oc2cc(O)ccc21)[C@@H](C)O)C(=O)N1CCCCC1C(=O)N1C[C@H](O/N=C\CCc2ccccc2)C[C@H]1C(=O)N[C@@H](CCC(=O)O)C(=O)N[C@@H](CCC(=O)O)C(N)=O (stereo not given in full) ({Fluorescein(5-NHCS)-Ava}-PEPTA[ξPip][X26]EE-NH2)
20 | C[C@H](NC(=O)[C@@H](NC(=O)[C@@H]1CCCN1C(=O)[C@H](CCC(=O)O)NC(=O)[C@@H]1CCCN1C(=O)CCCCNC(=S)Nc1ccc2c(c1)C1(OC2=O)c2ccc(O)cc2Oc2cc(O)ccc21)[C@@H](C)O)C(=O)N1CCCCC1C(=O)N1C[C@H](O/N=C\c2ccc(C#N)cc2)C[C@H]1C(=O)N[C@@H](CCC(=O)O)C(=O)N[C@@H](CCC(=O)O)C(N)=O (stereo not given in full) ({Fluorescein(5-NHCS)-Ava}-PEPTA[ξPip][X27]EE-NH2)
48 | C[C@H](NC(=O)[C@@H](NC(=O)[C@@H]1CCCN1C(=O)[C@H](CCC(=O)O)NC(=O)[C@@H]1CCCN1C(=O)CCCCNC(=S)Nc1ccc2c(c1)C1(OC2=O)c2ccc(O)cc2Oc2cc(O)ccc21)[C@@H](C)O)C(=O)N1CCCCC1C(=O)N1C[C@@H](O/N=C\c2ccoc2)C[C@H]1C(=O)N[C@@H](CCC(=O)O)C(=O)N[C@@H](CCC(=O)O)C(N)=O (stereo not given in full) ({Fluorescein(5-NHCS)-Ava}-PEPTA[ξPip][X35]EE-NH2)
